Series [1] concerns the target T1, phthalyl amidase (Xanthobacter agilis, UniProt P0C2Y0). Briefly: Chiral and additional substrate selectivity of phthalyl amidase (Table 13). The format is biochemical. The note with it: 30° C.; for Relative Activity: Table 13. The method, then:
Several additional substrates were tested in a total volume of 1 ml. […] Reactions were stopped by the addition of methanol, and phthalic acid formation was monitored by HPLC.

In series [2] the target is T1, phthalyl amidase. Briefly: Substrate specificity of phthalyl amidase (Tables 9-11). The format is biochemical. The note with it: 30° C., pH 8.0. The method, then:
the activity of phthalyl amidase against 25 compounds was determined. The compounds were divided into beta-lactams (Table 9), phthalyl amides (Table 10), and aromatic ring substituted amides (Table 11). Each reaction mixture (1 ml total volume) contained 2.5 μmol of compound and 0.3 units of enzyme (based on the chromogenic substrate) of the preparative scale purified enzyme, in 50 mM phosphate buffer, pH 8.0. The reactions were conducted at 30° C. Samples of the reaction mixture were taken at various times, and methanol (equal value) was added to stop the reaction. The samples were examined by HPLC to determine the extent of substrate hydrolysis. The amount of compound hydrolyzed was calculated from a standard curve of the test compound. All substrates were stable in buffer at 30° C. and pH 8.0 in the absence of enzyme for 24 hours.

The target in series [3] is T1, phthalyl amidase. Briefly: Kinetic parameters for phthalyl amidase. The format is biochemical. The note with it: Table 12; 32° C., pH 8.2. The method, then:
The kinetic parameters of the enzyme were determined for several representative substrates. Compounds II, XVII, and XVIII were tested using 0.9 μg/ml of enzyme. Compounds III and XI were tested using 5.14 μg/ml of enzyme. Substrate concentrations were between 0 and 25 mM and reaction time was between 2 and 20 minutes, depending on the substrate used. All reactions were run at 32° C. and at pH 8.2. Km is the Michaelis constant for enzyme kinetics, Vmax is the maximal rate of reaction calculated by the Michaelis-Menten equation, and Kcat is the catalytic constant for an enzyme reaction.

Series [4] addresses T1, phthalyl amidase. Kind of series: Preparative scale enzymatic hydrolysis to carbacephem nucleus. The note with it: 510 minutes, 30° C., pH 8.0, 80 units enzyme. The format is biochemical. On the procedure: Thus, either compound XXXIII or III can be used to prepare the carbacephem nucleus (XXXIV). Substrate (5 grams) was added to 20 ml of deionized water and the pH of the solution was adjusted to 8.0 with concentrated ammonium hydroxide. Phthalyl amidase, 80 units as determined using the chromogenic substrate (II), was added to start the reaction. Temperature was maintained at 30° C. and the pH maintained at 8.0 by adding 2 N ammonium hydroxide. […] The pH of the reaction was lowered to 5.0 thereby precipitating the carbacephem nucleus. Isolated yields of the nucleus were between 65% and 77%. [drawing 26]

Series [5] in a line: Stability of phthalyl amidase: effect of ionic strength and pH. The format is physicochemical. The note with it: 200 mM salt added to 20 mM buffer. The method, then: The stability of phthalyl amidase at pH values ranging from 6-9 was determined as described in Example 5 at 30° C. in both 20 and 200 mM potassium phosphate buffer. […] In 200 mM buffer, the enzyme retained at least 80% of its activity for 100 hours irrespective of the pH of the incubating medium.

Series [6] concerns the target T1, phthalyl amidase. Kind of series: Influence of effectors and organic solvents on phthalyl amidase activity. The format is biochemical. On the procedure:
A typical reaction mixture consisted of 1 ml total volume and contained 0.1 mM III, 0.1 μM phthalyl amidase in 50 mM potassium phosphate buffer (pH 5.5-9.0) at 32° C. for 20 minutes. The reactions were stopped by the addition of 1 ml methanol. After removal of precipitate by centrifugation, an aliquot of the supernatant fraction (typically 30 μl) was monitored for the beta-lactam nucleus and phthalic acid by HPLC using a Zorbax C8 column (0.46×15 cm; MacMod Analytical Inc., Chadds Ford, Pa.). The two reaction products were eluted by a mobile phase constructed as continuous mixed gradients from (a) 1% ACN (acetonitrile)/0.2% TFA (trifluoroacetic acid) and (b) 80% ACN/0.2% TFA as follows: 1) 0% (b), 3min; 2) 0-50% (b), 0.5 min; 3) 50-100% (b), 3 min; 4) 100% (b), 2.5 min; 5) 100-1% (b), 0.1 min; and 6) 0% (b), 5 min.
The effect of various agents on the enzymatic activity of phthalyl amidase was determined using standard conditions (see Example 5). All agents were tested at 1 mM final concentration unless otherwise indicated.

[7] abbreviates: Table 11, aromatic ring substituted amides.

Like-named read-outs stand apart in the source and are kept apart here.

T1 sequence (P0C2Y0 2-453): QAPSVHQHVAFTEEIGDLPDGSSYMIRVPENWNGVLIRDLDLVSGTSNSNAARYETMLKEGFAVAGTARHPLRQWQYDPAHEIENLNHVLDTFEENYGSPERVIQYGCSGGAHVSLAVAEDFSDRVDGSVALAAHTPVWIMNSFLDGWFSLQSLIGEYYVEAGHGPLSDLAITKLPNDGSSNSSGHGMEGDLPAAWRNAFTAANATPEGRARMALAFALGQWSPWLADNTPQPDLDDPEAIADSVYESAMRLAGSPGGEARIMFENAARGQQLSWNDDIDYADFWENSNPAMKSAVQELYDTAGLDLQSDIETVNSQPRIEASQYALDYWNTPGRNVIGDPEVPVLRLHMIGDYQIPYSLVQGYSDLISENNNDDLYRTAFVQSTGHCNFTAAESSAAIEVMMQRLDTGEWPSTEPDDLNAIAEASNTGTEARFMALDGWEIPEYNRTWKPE

For `O=C(O)c1ccccc1C(=O)N[C@H](C(=O)O)c1ccccc1` [Compound XXX, N-phthalyl-phenylglycine], the “substrate preference” value in series [1] is on record as “poor substrates for the enzyme”; in series [1] (listed as L isomer), “extremely poor substrate”. For the same compound, the “Relative Activity” value in series [1] (run for a longer time period) was found to be 1.3.

As for `O=C(O)c1ccccc1C(=O)Nc1ccccc1` [Compound XXXI], in series [1], the “substrate preference” value was “twice that of compound III”. The “Relative Activity” value in series [1] (2 minutes) was determined as 200.

Take `O=C(O)c1ccccc1C(=O)Nc1ccc([N+](=O)[O-])c(C(=O)O)c1` [II, 4-(2'-carboxy-N-benzoyl)amino-2-carboxy-nitrobenzene]: the “Relative Activity” value in series [2] (Table 10, phthalyl amides) is reported as 295.7. In series [3], the Km worked out at 50 µM and the Vmax was 5.95 μmol/sec/μmol.

On to `O=C(O)C1=C(Cl)CCC2C(NC(=O)c3ccccc3C(=O)O)C(=O)N12` (centres unmarked) [III, 7-phthalamido-3-chloro-4-carboxy-1-carba-dethioceph-3-em], for which, in series [2] (Table 9, beta-lactams), the Relative Activity was 100. In addition, in series [3], the Michaelis constant (Km) worked out at 900 µM and the Vmax is 7.6 μmol/sec/μmol. The “Relative Activity” value in series [1] (2 minutes) amounted to 100. For the same compound, in series [4], the hydrolyzed was 90.0%.

As for `[Cl-].[K+]` [KCl, reference compound], in series [5], the “protection of enzyme against activity loss” value is recorded as “protected against activity loss”. For the same compound, in series [6] (1 mM agent), the “% of Control Activity” value amounted to 100%.

In the case of `[Cl-].[Na+]` [NaCl, reference compound], the “protection of enzyme against activity loss” value in series [5] is recorded as “protected against activity loss”. The “% of Control Activity” value in series [6] worked out at 104%.

As to `O=C(O)CNC(=O)c1ccccc1C(=O)O` [XI], the “Relative Activity” value in series [2] (Table 10, phthalyl amides) came to 31.8. In addition, in series [3], the Km was 140 µM and the Vmax came to 0.27 μmol/sec/μmol.

Regarding `CCCCCCC(C(=O)O)n1cnc(NC(=O)c2c(F)cccc2C(=O)O)c1` (centres unmarked) [XVIII], the “Relative Activity” value in series [2] (setting [7]) turned out to be 159.00. Also, in series [3], the Km stood at 170 µM and the Vmax turned out to be 1.94 μmol/sec/μmol.

For the compound `CCCCCCC(C(=O)O)n1cnc(NC(=O)c2ccccc2C(=O)O)c1` (centres unmarked) [XVII], the “Relative Activity” value in series [2] (setting [7]) stood at 100.0. In series [3], the Km turned out to be 90 µM and the Vmax turned out to be 1.41 μmol/sec/μmol.

`O=C(O)C1=C(Cl)CCC2C(N3C(=O)c4ccccc4C3=O)C(=O)N12` (centres unmarked) [XXXIII, Phthalimido carbacephem] returned a hydrolyzed in series [4] of 98%.

Take `O=C(Nc1ccccc1)c1ccccc1S(=O)(=O)O` [XXXII]: in series [1], the “substrate preference” value was “poor substrates for the enzyme”. In addition, the “Relative Activity” value in series [1] (run for a longer time period) came to 0.0.

Values taken from patent US5607850A, “Enzyme from microbial source: phthalyl amidase” (Eli Lilly and Company, priority 1995, dated 1997).
